Patent US7858349B2, “Anti-cancer compounds” (The Regents of the University of Colorado, priority 1999, dated 2010)
Like-named read-outs stand apart in the source and are kept apart here.

Columns and labels:
A549 NSCLC cells = test: Inhibition of A-549 tumor growth in vivo in nude mice; parameters: species or system athymic nude mice; settings: percent inhibition of tumor growth in nude mice; i.p. 5 mg/kg/every second day or 10 mg/kg/every fourth day
Protocol: (§1) Compounds having high in vitro cytotoxic activity were tested against implanted tumors in vivo. Athymic nude mice were implanted subcutaneously with suspensions (2 million SHP-77 SCLC cells, 1 million A549 NSCLC cells or 1.5 million PC3 PC cells) in Matrigel suspension. On the eighth day after tumor implantation groups of 5 mice bearing implants were injected intraperitoneally with the compounds being tested at 5 mg/kg/every second day or at 10 mg/kg/every fourth day; control animals were injected with an equal volume of isotonic saline. Less soluble compounds were initially dissolved in dimethyl sulfoxide (DMSO) and diluted with medium. In those cases the control injections contained the same concentration of DMSO. Tumor size was measured with a caliper three times per week. Tumor volume was calculated by the formula: Volume(cc)=3.14×(length)×(width)^2/6 At autopsy tumors were removed and weighed. Tumor inhibition was calculated on both weight and measurement basis. In each Table, an IC50 value of “0” represents no detectable anti-cancer activity for a drug in a given cell line and “Stim.” indicates the observation of a stimulatory activity on the growth of the cancer cell line.

PC3 PC cells = test: Inhibition of PC3 tumor growth in vivo in nude mice; parameters: species or system athymic nude mice; key to PC3 In vivo % inhib.: an IC50 value of “0” represents no detectable anti-cancer activity for a drug in a given cell line; “Stim.” indicates the observation of a stimulatory activity on the growth of the cancer cell line; settings: for PC3 In vivo % inhib.: percent inhibition of tumor growth in nude mice, prostate cancer, i.p. 5 mg/kg/every second day or 10 mg/kg/every fourth day
Summary of the method: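 Groups of 5 nude mice dosed i.p. at 10 mg/kg every fourth day or 5 mg/kg every second day, beginning 8 days after s.c. implantation of PC3 (1.5 million), A549 (1 million) or SHP-77 (2 million) cells in Matrigel; saline or DMSO-matched controls. Tumor weight at necropsy and caliper-derived volume both used to calculate inhibition.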

SCLC strain SHP-77 = test: MTT assay for cell survival, SCLC SHP-77 in vitro; type: cell-based, human; settings: ED50 for killing of SCLC strain SHP-77 in vitro, 4 days, 0 = no detectable activity
[1] = test system: cultured human cancer cell lines; test: MTT assay for cell survival, cell line not stated; type: cell-based; settings: 4 days, read-out: concentration causing 50% cell death
implanted tumors = test: In vivo anti-cancer activity after oral administration; parameters: species or system nude mice
SHP-77 SCLC cells = test: Inhibition of SHP-77 tumor growth in vivo in nude mice; parameters: species or system athymic nude mice; settings: 5 mg/kg/every second day or 10 mg/kg/every fourth day
Protocol: as §1

NSCLC strain A-549 = test: MTT assay for cell survival, NSCLC A-549 in vitro; type: cell-based, human; settings: ED50 for killing of NSCLC strain A-549 in vitro, 4 days

Molecule	A-549 In vivo % inhib. (A549 NSCLC cells) [%]	PC3 In vivo % inhib. (PC3 PC cells)	IC50 (SCLC strain SHP-77; read-out: SCLC SHP-77 IC50) [µM]	IC50 (SCLC strain SHP-77; read-out: SHP-77 In vitro IC50) [µM]	inhibition of PC cell line PC3 tumors (PC3 PC cells; nude mice, 5 mg/kg/every second day or 10 mg/kg/every fourth day) [%]	IC50 [1] [µM]	in vivo anti-cancer activity after oral administration (implanted tumors)	inhibition of growth of the SCLC line SHP-77 (SHP-77 SCLC cells) [%]	IC50 (NSCLC strain A-549) [µM]
CC1(C)CC(NC(=O)C(Cc2ccc(OCc3c(Cl)cccc3Cl)cc2)NC(=O)C=Cc2cc(F)cc(F)c2F)CC(C)(C)N1 (centres unmarked) [Analog M-1388, F3c-OC2Y-Atmp]	21	Stim.	1.6						
O=C(C=Cc1c(F)c(F)c(F)c(F)c1F)NC(Cc1ccc(I)cc1)C(=O)NC1CCN(Cc2ccccc2)CC1 (centres unmarked) [Analog M-1180, F5c-PIF-Abzp]	23	53%		3.2					
CC1(C)CC(NC(=O)C(Cc2ccc(OCc3c(Cl)cccc3Cl)cc2)NC(=O)CCCc2c[nH]c3ccccc23)CC(C)(C)N1 (centres unmarked) [Analog M-1364, 3Ibu-OC2Y-Atmp]	50	9%	7.2						
Pentafluorocinnamoyl-O-(2,6-dichlorobenzyl)tyrosine-4-amino-2,2,6,6-tetramethylpiperidine [Analog M570, reference compound]					65	0.15	active	85	
CC1(C)CC(NC(=O)C(Cc2ccc(OCc3c(Cl)cccc3Cl)cc2)NC(=O)CCCc2ccc(N(CCCl)CCCl)cc2)CC(C)(C)N1 (centres unmarked) [Analog M-1384, Chl-OC2Y-Atmp]	46	Stim.	1.8						1.9
CCCCCCC(O)CC=CCCCCCCCC(=O)NC(Cc1ccc(OCc2c(Cl)cccc2Cl)cc1)C(=O)NC1CC(C)(C)NC(C)(C)C1 (centres unmarked) [Analog M-1128, Rio-OC2Y-Atmp]	48	44%		1.6					
CC1(C)CC(NC(=O)C(Cc2ccc(OCc3c(Cl)cccc3Cl)cc2)NC(=O)c2cnccn2)CC(C)(C)N1 (centres unmarked) [Analog M-1368, 2Pyz-OC2Y-Atmp]	47	Stim.	3.2						
COc1ccc2c(c1)c(CC(=O)NC(Cc1ccc(OCc3c(Cl)cccc3Cl)cc1)C(=O)NC1CC(C)(C)NC(C)(C)C1)c(C)n2C(=O)c1ccc(Cl)cc1 (centres unmarked) [Analog M-1376, Indo-OC2Y-Atmp]	18	44%	1.5						1.8
CC(=O)Oc1ccccc1C(=O)NC(Cc1ccc(OCc2c(Cl)cccc2Cl)cc1)C(=O)NC1CC(C)(C)NC(C)(C)C1 (centres unmarked) [Analog M-1378, Aspr-OC2Y-Atmp]	9	Stim.	2.9						3.5
CC1(C)CC(NC(=O)C(Cc2ccc(OCc3c(Cl)cccc3Cl)cc2)NC(=O)C2CCn3c(C(=O)c4ccccc4)ccc32)CC(C)(C)N1 (centres unmarked) [Analog M-1394, Ktlc-OC2Y-Atmp]	68	Stim.	2.9						4.9
O=C(C=Cc1c(F)c(F)c(F)c(F)c1F)NC(Cc1ccc2ccccc2c1)C(=O)N1CCN(c2ccccn2)CC1 (centres unmarked) [Analog M-1216, F5c-Nal-Pypz]	32	22%		> 60					
O=C(NC(Cc1ccc2ccccc2c1)C(=O)N1CCN(c2ccccn2)CC1)C(c1ccc(Cl)cc1)c1ccc(Cl)cc1 (centres unmarked) [Analog M-1242, Bcpa-Nal-Pypz]	19	36%		> 60					
CC1(C)CC(NC(=O)C(Cc2ccc(-c3ccccc3)cc2)NC(=O)C=Cc2c(F)c(F)c(F)c(F)c2F)CC(C)(C)N1 (centres unmarked) [Analog M-1174, F5c-Bip-Atmp]	57	37%		3.7					
CC1(C)CC(NC(=O)C(Cc2ccc(OCc3c(Cl)cccc3Cl)cc2)NC(=O)C(c2ccccc2)C2CCCCC2)CC(C)(C)N1 (single isomer, unassigned) [M-1124#1, Chpa-OC2Y-Atmp]	50	Stim		1.7					
O=C(NC(Cc1ccc2ccccc2c1)C(=O)N(Cc1ccccn1)Cc1ccccn1)C(c1ccc(Cl)cc1)c1ccc(Cl)cc1 (centres unmarked) [Analog M-1214, Bcpa-Nal-Dpic]	24	37%		7.3					
